In patent publication US8093244B2, “Heteroaryl urea derivatives useful for inhibiting CHK1” (ICOS Corporation, priority 2005, dated 2012):

What was measured:
Chk1 [1] = test: Western blot of Chk1 phosphorylation at serines 317 and 345 in HT29 cells (Example 9); type: cell-based, human; conditions: 20 μM for two h, 22 additional h
From the text: To determine whether an agent is a Chk1 activator, the phosphorylation state of Chk1 can be measured using phospho-specific antibodies to specific phosphorylation sites on Chk1. […] Liu et al., Genes Dev. 14:1448-1459, 2000; Zhao et al., Mol. Cell Biol. 21:4129-4139, 2001; Lopez-Girona et al., Proc. Natl. Acad. Sci. U.S.A. 98:11289-11294, 2001; Guo et al., Genes Dev. 14:2745-2756, 2000; Gatei et al., J. Biol. Chem. 278:14806-14811, 2003; Ng et al., J Biol Chem. 279 (10):8808-19, 2004; Wang et al., Natl Acad Sci USA. 100(26):15387-92, 2003; Stojic et al., Genes Dev. 18(11):1331-44, 2004. These serine sites are phosphorylated by upstream checkpoint kinases, Atm and Atr. Liu et al., Genes Dev. 14:1448-1459, 2000; Zhao et al. Mol. Cell Biol., 21:4129-4139, 2001).
The phosphorylation of these sites in response to a candidate Chk1 activator can be monitored by Western blot or immunohistochemistry of tumor cells. […] HT29 cells are treated with 20 μM gemcitabine for two h. The gemcitabine is washed out of the cell growth media and cells are incubated for 22 additional h. Protein lysates are prepared and separated by an SDS-polyacrylamide gel electrophoresis. Proteins are transferred to PVDF membranes and probed with antisera (Cell Signalling) specific for either phosphorylated serine 317 or 345 (Cell Signalling).

Chk1 [2] = test: Western blot of Chk1 phosphorylation at serine 296 in HT29 cells (Example 10); type: cell-based, human; conditions: gemcitabine 20 μM for two h, 22 additional h
Experimental: Phosphorylation at this site is not inhibited by wortmannin, which inhibits Atm and Atr. Therefore, the phosphorylation of serine 296 is distinct from phosphorylation at serines 317 and 345. […] Therefore, this approach can be used to monitor Chk1 activity in tumors in response to Chk1 activators. Further, this approach can be used to measure inhibition of Chk1 activation by Chk1 inhibitors.
Thus, HT 29 cells are treated with 20 μM gemcitabine for two h. The gemcitabine is washed out of the cell growth media and cells are incubated for 22 additional h. Protein lysates are prepared and separated by an SDS-polyacrylamide gel electrophoresis. Proteins are transferred to polyvinylidene fluoride (PVDF) membranes and probed with antisera (Cell Signalling) specific for phosphorlyated serine 296 (Cell Signalling). […] Further, HT29 cells treated with selective Chk1 inhibitors for 15 min show no serine 296 phosphorylation.

[3] = system: xenograft tumors of colon tumor cell lines; test: Xenograft animal tumor models (Example 11); type: in vivo, Balb/c (nu/nu) mice; conditions: 160 mg/kg intraperitoneal
From the text: To test the ability of the Chk1 inhibitors of the invention to enhance the killing of tumors by DNA damaging agents in mice, xenograft tumor models using colon tumor cell lines are established. 5-fluorouracil (5-FU) or gemcitabine can be used as DNA damaging agents. HT29 and Colo205 (human colon carcinoma) and H460 and Calu-6 (nonsmall cell carcinoma) cells can be used to propagate xenograft tumors in 6-8 week old female […] Balb/c (nu/nu) mice. Mice are maintained in a laminar airflow cabinet under pathogen-free conditions and fed sterile food and water ad libitum. Cell lines are grown to subconfluence in RPMI 1640 media supplemented with 10% FBS, 100 U/mL penicillin, 100 μg/mL streptomycin, and 1.5 mM L-glutamine in a 5% CO2 humidified environment. Single cell suspensions are prepared in CMF-PBS, and cell concentration adjusted to 1×10^8 cells/mL. Mice are inoculated subcutaneously (s.c.) on the right flank or right leg with a total of 1×10^7 cells (100 μL). Mice are randomized (5-15 mice/group) into four treatment groups and used when tumors reach a volume of […] (usually 7-11 days post-inoculation). Tumors are measured with vernier calipers and tumor volumes are estimated using the empirically derived formula: tumor volume (cm^3)=tumor length (cm)×tumor width (cm)×tumor depth (cm)/3.3. […] Tumor size is monitored every other day for the duration of the experiment.

SMILES	phosphorylation of Chk1 serines 317 and 345 (Chk1 [1])	phosphorylation of Chk1 serine 296 (Chk1 [2])	tumor growth [3]
Nc1ccn([C@@H]2O[C@H](CO)[C@@H](O)C2(F)F)c(=O)n1 [gemcitabine, 2′,2′-difluoro-2′-deoxycytidine]	results in the phosphorylation of both serines 317 and 345	results in the phosphorylation of serine 296	A delay in tumor growth is observed
COC[C@H]1OC(=O)c2coc3c2[C@@]1(C)C1=C(C3=O)[C@@H]2CCC(=O)[C@@]2(C)C[C@H]1OC(C)=O [wortmannin]	–	not inhibited	–
